The text below walks through data of ChEMBL document CHEMBL5291721, “A preclinical secondary pharmacology resource illuminates target-adverse drug reaction associations of marketed drugs” (Nat Commun, 2023).

Molecules are shown by their SMILES.

In assay [1] the target is Gamma-aminobutyric acid receptor subunit alpha-1 (Rattus norvegicus, UniProt P62813).
Assay [2] concerns the target T1, Alpha-1A adrenergic receptor (Homo sapiens, UniProt P35348).
T1 sequence (P35348 whole entry): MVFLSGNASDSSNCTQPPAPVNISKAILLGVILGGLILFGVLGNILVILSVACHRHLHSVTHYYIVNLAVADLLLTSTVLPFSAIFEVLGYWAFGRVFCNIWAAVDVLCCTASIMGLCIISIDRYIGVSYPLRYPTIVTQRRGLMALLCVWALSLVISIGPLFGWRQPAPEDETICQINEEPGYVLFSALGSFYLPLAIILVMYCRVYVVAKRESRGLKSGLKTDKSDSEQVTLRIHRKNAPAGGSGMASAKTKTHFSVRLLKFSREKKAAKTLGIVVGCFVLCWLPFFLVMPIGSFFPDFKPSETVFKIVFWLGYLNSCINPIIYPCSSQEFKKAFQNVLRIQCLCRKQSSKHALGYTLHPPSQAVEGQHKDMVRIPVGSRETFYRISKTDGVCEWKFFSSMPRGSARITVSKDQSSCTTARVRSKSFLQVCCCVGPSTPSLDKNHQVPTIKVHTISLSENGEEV
It counts as functional, cell-based.

Assay [3] concerns the target Growth hormone secretagogue receptor type 1 (Homo sapiens, UniProt Q92847).
Assay [4] deals with Glutamate receptor ionotropic, NMDA 1 (Rattus norvegicus, UniProt P35439).
The next assay deals with Cannabinoid receptor 1 (Homo sapiens, UniProt P21554). Format: functional, cell-based.
The next assay has as its target Adenosine receptor A2a (Homo sapiens, UniProt P29274).
In another assay the target is T2, Glucocorticoid receptor (Homo sapiens, UniProt P04150).
T2 sequence (P04150 whole entry): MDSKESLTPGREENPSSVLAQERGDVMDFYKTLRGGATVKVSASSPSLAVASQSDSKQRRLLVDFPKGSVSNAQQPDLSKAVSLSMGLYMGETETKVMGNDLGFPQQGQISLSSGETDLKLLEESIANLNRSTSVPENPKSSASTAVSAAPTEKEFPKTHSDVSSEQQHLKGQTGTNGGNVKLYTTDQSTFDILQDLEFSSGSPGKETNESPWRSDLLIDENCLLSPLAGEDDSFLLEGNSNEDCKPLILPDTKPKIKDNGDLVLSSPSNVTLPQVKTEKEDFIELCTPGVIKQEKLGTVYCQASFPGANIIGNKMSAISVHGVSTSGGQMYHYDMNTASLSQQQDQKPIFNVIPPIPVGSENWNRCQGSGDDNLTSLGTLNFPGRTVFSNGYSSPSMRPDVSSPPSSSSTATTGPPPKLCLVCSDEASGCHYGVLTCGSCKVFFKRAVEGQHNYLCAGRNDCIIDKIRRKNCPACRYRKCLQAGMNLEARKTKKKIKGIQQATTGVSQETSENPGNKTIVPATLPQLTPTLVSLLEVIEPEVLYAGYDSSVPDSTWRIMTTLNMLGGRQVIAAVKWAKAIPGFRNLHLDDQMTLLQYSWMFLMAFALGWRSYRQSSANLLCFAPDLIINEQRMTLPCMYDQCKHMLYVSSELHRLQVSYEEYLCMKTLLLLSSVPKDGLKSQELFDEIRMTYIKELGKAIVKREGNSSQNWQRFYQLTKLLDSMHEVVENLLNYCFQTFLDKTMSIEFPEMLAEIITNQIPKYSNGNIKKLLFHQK

The target in another assay is Mu-type opioid receptor (Homo sapiens, UniProt P35372). In words: biochemical. Format: functional.
Assay [5] deals with T3, Prostaglandin G/H synthase 1 (Rattus norvegicus, UniProt Q63921).
T3 sequence (Q63921 whole entry): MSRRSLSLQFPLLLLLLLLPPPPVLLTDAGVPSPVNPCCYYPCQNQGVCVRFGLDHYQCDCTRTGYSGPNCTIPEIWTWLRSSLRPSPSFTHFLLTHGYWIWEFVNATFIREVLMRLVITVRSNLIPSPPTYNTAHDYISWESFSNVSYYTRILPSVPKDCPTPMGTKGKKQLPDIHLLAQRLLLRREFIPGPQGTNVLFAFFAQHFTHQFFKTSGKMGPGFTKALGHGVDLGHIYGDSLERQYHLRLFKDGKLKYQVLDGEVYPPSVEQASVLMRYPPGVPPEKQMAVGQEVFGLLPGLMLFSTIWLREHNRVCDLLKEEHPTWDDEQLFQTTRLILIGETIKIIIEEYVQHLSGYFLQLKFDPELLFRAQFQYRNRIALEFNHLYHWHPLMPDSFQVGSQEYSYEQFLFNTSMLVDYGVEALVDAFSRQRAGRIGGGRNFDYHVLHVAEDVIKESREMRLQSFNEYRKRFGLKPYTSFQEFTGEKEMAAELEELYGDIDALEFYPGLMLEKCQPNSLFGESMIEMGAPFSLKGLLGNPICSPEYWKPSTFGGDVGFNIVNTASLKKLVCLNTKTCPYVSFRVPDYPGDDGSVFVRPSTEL
Format: functional.

For assay [6], the target named is T4, Muscarinic acetylcholine receptor M2 (Homo sapiens, UniProt P08172).
T4 sequence (P08172 whole entry): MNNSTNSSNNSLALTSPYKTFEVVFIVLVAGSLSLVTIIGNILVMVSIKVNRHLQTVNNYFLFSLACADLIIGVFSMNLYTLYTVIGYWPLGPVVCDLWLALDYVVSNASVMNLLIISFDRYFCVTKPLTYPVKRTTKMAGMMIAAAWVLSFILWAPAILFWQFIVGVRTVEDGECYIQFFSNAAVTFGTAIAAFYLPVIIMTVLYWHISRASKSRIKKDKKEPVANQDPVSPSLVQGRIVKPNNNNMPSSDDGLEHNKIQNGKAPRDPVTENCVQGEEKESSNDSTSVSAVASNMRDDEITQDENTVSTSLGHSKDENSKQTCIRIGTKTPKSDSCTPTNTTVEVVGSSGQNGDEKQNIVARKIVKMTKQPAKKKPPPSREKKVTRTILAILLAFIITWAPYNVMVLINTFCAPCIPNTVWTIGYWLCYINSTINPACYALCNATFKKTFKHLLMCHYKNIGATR
It counts as functional, cell-based.
Also: assay procedure not described here.

Chain of Growth hormone secretagogue receptor type 1 (Q92847 whole entry): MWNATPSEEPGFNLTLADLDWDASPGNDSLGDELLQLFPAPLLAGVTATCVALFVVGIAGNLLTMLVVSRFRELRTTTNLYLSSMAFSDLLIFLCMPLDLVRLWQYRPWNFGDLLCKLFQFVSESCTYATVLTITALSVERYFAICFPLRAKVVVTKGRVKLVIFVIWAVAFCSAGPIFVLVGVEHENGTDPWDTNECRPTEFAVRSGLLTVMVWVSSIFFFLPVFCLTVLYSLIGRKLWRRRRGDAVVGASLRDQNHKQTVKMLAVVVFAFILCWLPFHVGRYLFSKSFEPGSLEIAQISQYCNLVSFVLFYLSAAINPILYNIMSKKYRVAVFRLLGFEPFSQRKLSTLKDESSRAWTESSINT
Chain of Mu-type opioid receptor (P35372 whole entry): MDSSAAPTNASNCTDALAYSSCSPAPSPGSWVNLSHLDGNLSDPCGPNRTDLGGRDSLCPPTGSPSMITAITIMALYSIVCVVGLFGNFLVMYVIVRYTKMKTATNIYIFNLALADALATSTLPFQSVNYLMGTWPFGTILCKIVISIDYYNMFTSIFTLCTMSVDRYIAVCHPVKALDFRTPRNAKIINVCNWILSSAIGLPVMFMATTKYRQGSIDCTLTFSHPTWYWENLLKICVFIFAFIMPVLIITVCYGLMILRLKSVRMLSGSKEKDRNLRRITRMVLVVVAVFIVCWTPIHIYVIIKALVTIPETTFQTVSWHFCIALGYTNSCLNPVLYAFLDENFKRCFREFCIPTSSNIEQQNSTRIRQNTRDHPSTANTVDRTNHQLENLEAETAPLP
Chain of Cannabinoid receptor 1 (P21554 whole entry): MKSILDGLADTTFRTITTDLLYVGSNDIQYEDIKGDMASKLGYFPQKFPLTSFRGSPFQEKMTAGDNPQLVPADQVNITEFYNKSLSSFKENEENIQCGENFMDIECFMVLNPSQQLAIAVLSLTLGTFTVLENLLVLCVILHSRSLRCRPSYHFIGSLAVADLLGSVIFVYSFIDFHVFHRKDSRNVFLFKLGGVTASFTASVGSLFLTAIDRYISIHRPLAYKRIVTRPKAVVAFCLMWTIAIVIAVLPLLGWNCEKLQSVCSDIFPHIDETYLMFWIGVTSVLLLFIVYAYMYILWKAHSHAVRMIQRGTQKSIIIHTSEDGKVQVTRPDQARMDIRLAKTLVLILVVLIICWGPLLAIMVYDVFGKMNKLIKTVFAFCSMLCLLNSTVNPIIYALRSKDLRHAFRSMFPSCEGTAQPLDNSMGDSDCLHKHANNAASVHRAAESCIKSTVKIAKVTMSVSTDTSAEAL
Chain of Adenosine receptor A2a (P29274 whole entry): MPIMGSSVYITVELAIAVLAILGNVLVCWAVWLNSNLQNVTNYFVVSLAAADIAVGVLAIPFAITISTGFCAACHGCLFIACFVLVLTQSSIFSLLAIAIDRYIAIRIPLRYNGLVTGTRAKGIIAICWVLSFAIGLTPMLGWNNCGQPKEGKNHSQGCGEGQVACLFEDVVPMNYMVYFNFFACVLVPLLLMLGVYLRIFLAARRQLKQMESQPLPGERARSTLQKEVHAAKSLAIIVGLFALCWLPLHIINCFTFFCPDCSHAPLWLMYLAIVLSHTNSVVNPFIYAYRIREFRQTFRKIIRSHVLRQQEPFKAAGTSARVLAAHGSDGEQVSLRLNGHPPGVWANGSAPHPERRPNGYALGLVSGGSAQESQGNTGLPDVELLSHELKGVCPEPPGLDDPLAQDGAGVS
Chain of Gamma-aminobutyric acid receptor subunit alpha-1 (P62813 whole entry): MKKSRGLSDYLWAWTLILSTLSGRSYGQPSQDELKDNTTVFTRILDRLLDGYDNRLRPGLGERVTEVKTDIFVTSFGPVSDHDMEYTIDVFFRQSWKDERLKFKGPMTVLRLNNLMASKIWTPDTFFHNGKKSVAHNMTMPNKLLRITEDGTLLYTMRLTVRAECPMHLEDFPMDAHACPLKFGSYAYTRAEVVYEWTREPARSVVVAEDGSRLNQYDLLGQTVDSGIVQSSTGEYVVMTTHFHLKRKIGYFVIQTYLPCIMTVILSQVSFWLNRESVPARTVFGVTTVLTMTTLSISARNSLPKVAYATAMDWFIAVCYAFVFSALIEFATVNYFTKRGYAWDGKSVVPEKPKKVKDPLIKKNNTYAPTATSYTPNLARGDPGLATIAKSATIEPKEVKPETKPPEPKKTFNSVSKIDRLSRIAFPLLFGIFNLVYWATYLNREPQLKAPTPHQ

In general, AC50 refers to the concentration at which the activity in the assay is half-maximal. As for `CC(C)(C)NC[C@H](O)COc1nsnc1N1CCOCC1` [TIMOLOL], the concentration at half-maximal activity (AC50) (in assay [1]; in [2]; in [3]; in [4]; on Cannabinoid receptor 1; on Adenosine receptor A2a) was more than 30 µM in each case. In addition, the concentration at half-maximal activity (AC50) (on Glucocorticoid receptor; on Mu-type opioid receptor; in assay [5]; in assay [6]) was more than 30 µM in each case.
In the case of `COc1cc2c(Nc3ccc(Br)cc3F)ncnc2cc1OCC1CCN(C)CC1` [VANDETANIB], the concentration at half-maximal activity (AC50) in assay [1] is more than 30 µM; in assay [2], more than 30 µM; in assay [3], 26 µM; in [4], more than 30 µM; on Cannabinoid receptor 1 it was more than 30 µM; on Adenosine receptor A2a it was more than 30 µM. Moreover, the AC50 on Glucocorticoid receptor was more than 30 µM; on Mu-type opioid receptor, more than 30 µM; in assay [5] it was more than 30 µM; in [6], 21 µM.
